Legend:
[1] = (§1) The drug is tested on Z-026 corresponding to metagenome with ENA study accession number: PRJEB37062 and ENA sample accession number: ERS12561825 for biotransformation under anaerobic condition. The drug concentrations were measured over 9 timepoints collected between 0 and 24 hours of incubation by liquid-chromatography-coupled mass spectrometry (LC–MS); settings: 2 µM
[2] = (§2) The drug is tested on Z-017 corresponding to mouse gut metagenome with ENA study accession number: PRJEB37062 and ENA sample accession number: ERS12561816 for biotransformation under anaerobic condition. The drug concentrations were measured over 9 timepoints collected between 0 and 24 hours of incubation by liquid-chromatography-coupled mass spectrometry (LC–MS); settings: 2 µM
[3] = as §1, with “Z-004” for “Z-026”, “ERS12561804” for “ERS12561825”; settings: 2 µM
[4] = as §2, with “WLS-310” for “Z-017”, “human” for “mouse”, “ERS12561785” for “ERS12561816”; settings: 2 µM
[5] = as §2, with “WLS-240” for “Z-017”, “human” for “mouse”, “ERS12561773” for “ERS12561816”; settings: 2 µM
[6] = as §2, with “WLS-220” for “Z-017”, “human” for “mouse”, “ERS12561769” for “ERS12561816”; settings: 2 µM
[7] = as §2, with “WLS-073” for “Z-017”, “human” for “mouse”, “ERS12561749” for “ERS12561816”; settings: 2 µM
[8] = as §2, with “WLS-069” for “Z-017”, “human” for “mouse”, “ERS12561748” for “ERS12561816”; settings: 2 µM
[9] = as §2, with “WLS-052” for “Z-017”, “human” for “mouse”, “ERS12561747” for “ERS12561816”; settings: 2 µM
[10] = as §2, with “WLS-039” for “Z-017”, “human” for “mouse”, “ERS12561746” for “ERS12561816”; settings: 2 µM
[11] = as §2, with “WLS-010” for “Z-017”, “human” for “mouse”, “ERS12561743” for “ERS12561816”; settings: 2 µM
[12] = human gut metagenome, 24 h, 2 µM
[13] = human gut metagenome, 24 h, 2 µM; remark: listed apart in the source
[14] = human gut metagenome, 24 h, 2 µM; remark: listed apart in the source
[15] = human gut metagenome, 24 h, 2 µM; remark: listed apart in the source
[16] = human gut metagenome, 24 h, 2 µM; remark: listed apart in the source
[17] = human gut metagenome, 24 h, 2 µM; remark: listed apart in the source
[18] = human gut metagenome, 24 h, 2 µM; remark: listed apart in the source
[19] = human gut metagenome, 24 h, 2 µM; remark: listed apart in the source
[20] = human gut metagenome, 24 h, 2 µM; remark: listed apart in the source
Note: call rule not given here.

SMILES	Bacterial Biotransformation [1]	Bacterial Biotransformation [2]	Bacterial Biotransformation [3]	Bacterial Biotransformation [4]	Bacterial Biotransformation [5]	Bacterial Biotransformation [6]	Bacterial Biotransformation [7]	Bacterial Biotransformation [8]	Bacterial Biotransformation [9]	Bacterial Biotransformation [10]	Bacterial Biotransformation [11]	Bacterial Biotransformation [12]	Bacterial Biotransformation [13]	Bacterial Biotransformation [14]	Bacterial Biotransformation [15]	Bacterial Biotransformation [16]	Bacterial Biotransformation [17]	Bacterial Biotransformation [18]	Bacterial Biotransformation [19]	Bacterial Biotransformation [20]
CC(CN1c2ccccc2Sc2ccccc21)N(C)C (stereo not given) [PROMETHAZINE]	Compound NOT metabolized	Compound NOT metabolized	Compound NOT metabolized	Compound metabolized	Compound metabolized	Compound metabolized	Compound NOT metabolized	Compound metabolized	Compound NOT metabolized	Compound metabolized	Compound NOT metabolized	Compound NOT metabolized	Compound NOT metabolized	Compound NOT metabolized	Compound metabolized	Compound NOT metabolized	Compound NOT metabolized	Compound metabolized	Compound NOT metabolized	Compound metabolized
COc1ccccc1OCC(O)COC(N)=O (stereo not given) [METHOCARBAMOL]	Compound NOT metabolized	Compound NOT metabolized	Compound NOT metabolized	Compound NOT metabolized	Compound NOT metabolized	Compound NOT metabolized	Compound NOT metabolized	Compound NOT metabolized	Compound NOT metabolized	Compound NOT metabolized	Compound NOT metabolized	Compound NOT metabolized	Compound NOT metabolized	Compound NOT metabolized	Compound NOT metabolized	Compound NOT metabolized	Compound NOT metabolized	Compound NOT metabolized	Compound NOT metabolized	Compound NOT metabolized
C[C@@H](CO)NC(=O)[C@@H]1C=C2c3cccc4[nH]cc(c34)C[C@H]2N(C)C1.O=C(O)/C=C\C(=O)O [ERGONOVINE MALEATE]	Compound NOT metabolized	Compound NOT metabolized	Compound NOT metabolized	Compound metabolized	Compound metabolized	Compound NOT metabolized	Compound metabolized	Compound metabolized	Compound metabolized	Compound metabolized	Compound metabolized	Compound NOT metabolized	Compound metabolized	Compound metabolized	Compound metabolized	Compound NOT metabolized	Compound metabolized	Compound metabolized	Compound NOT metabolized	Compound NOT metabolized
OCCOCCN1CCN(C2=Nc3ccccc3Sc3ccccc32)CC1 [QUETIAPINE]	Compound NOT metabolized	Compound NOT metabolized	Compound metabolized	Compound NOT metabolized	Compound metabolized	Compound metabolized	Compound NOT metabolized	Compound NOT metabolized	Compound NOT metabolized	Compound NOT metabolized	Compound NOT metabolized	Compound NOT metabolized	Compound NOT metabolized	Compound metabolized	Compound NOT metabolized	Compound metabolized	Compound NOT metabolized	Compound metabolized	Compound metabolized	Compound metabolized
COc1cc2nc(N(C)CCCNC(=O)C3CCCO3)nc(N)c2cc1OC (stereo not given) [ALFUZOSIN]	Compound NOT metabolized	Compound NOT metabolized	Compound NOT metabolized	Compound metabolized	Compound metabolized	Compound metabolized	Compound metabolized	Compound metabolized	Compound metabolized	Compound NOT metabolized	Compound metabolized	Compound metabolized	Compound NOT metabolized	Compound metabolized	Compound metabolized	Compound metabolized	Compound metabolized	Compound metabolized	Compound metabolized	Compound metabolized
